One assay concerns Hep-G2 cells. The assay can be described thus: Immunoblotting of cleaved Caspase 3 and p21WAF/CIP. It is filed as cell-based, human. Conditions: for Caspase 3 cleavage (cleaved Caspase 3/Pro-caspase 3): IC50 or 2× IC50 for 18 h; for p21WAF/CIP level: higher concentrations, 18 h. As for the experimental part: (§1) Figure 3 Effects of STR-V-53 on intracellular markers of HDAC inhibition, antitumor immune response, and apoptosis. (a) STR-V-53 upregulates the levels of acetylated H4 and tubulin in Hep-G2 cells. Hep-G2 cells were treated with DMSO or 0.1% DMSO solution of SAHA (1.25 μM) and STR-V-53 (1.25 μM, 2.5 μM). Cells were treated for 5 h before lysis. Data are from two independent experiments. (b) STR-V-53 upregulates PD-L1 and downregulates PD-1 expressions in Hep-G2 cells. Cells were treated with DMSO or 0.1% DMSO solution of SAHA (5 μM and 10 μM) and STR-V-53 (10 and 20 μM) for 24 h. (c) STR-V-53 and SAHA caused upregulation of the levels of CD54 in the Hep-G2 cell line. Cells were treated with DMSO or 0.1% DMSO solution of SAHA (5 and 10 μM) and STR-V-53 (5, 10, and 20 μM) for 24 h. […] Cells were treated with DMSO or 0.1% DMSO solution of SAHA (5 μM) and STR-V-53 (10 and 20 μM).
HDAC inhibition could cause cell apoptosis through caspase cleavage and p21^WAF/CIP upregulation.[37] To probe if our compounds elicit a similar phenotype, we investigated the effects representative examples on the cellular levels of cleaved Caspase 3 and p21^WAF/CIP through immunoblotting.

For another assay, the system named is VERO cells. Briefly: Immunoblotting of cleaved Caspase 3. As to conditions: same concentrations as in Hep-G2. It is filed as cell-based. As for the experimental part: as §1
(In general: Immunoblotting shows a protein as a band on a membrane.)

Assay [1] concerns VERO (a normal kidney epithelial cell). Briefly: MTS cell viability assay, 72 h. In kind it is cell-based. The text has this:
(§2) We then screened STR-V-53 and all the synthesized glycosylated HDACi for their effects on the viability of three cell lines: A549 (lung adenocarcinoma), Hep-G2 (HCC), and VERO (a normal kidney epithelial cell). We used SORA and STR-V-48, a previously disclosed nonglycosylated compound, as controls.[25] […] Additionally, compound STR-V-167, the peracetylated analog of STR-V-53, largely retained the Hep-G2 selectivity of STR-V-53 (Table S2). Subsequently, we evaluated the effects of STR-V-53 on cell proliferation using a panel of human HCC cell lines (Huh-7, SK-Hep-1, and Hep3B) as well as Kupffer cells (liver resident macrophages) by MTS assay. We observed that STR-V-53 is 7- to 16-fold more cytotoxic against these HCC cell lines relative to the Kupffer cells (Figure 1g). […] Based on their weak HDAC and cell proliferation inhibition activities, we de-emphasized further evaluation of the class III compounds.
(§3) 10-017-CV), supplemented with 10% fetal bovine serum (FBS) (Corning, 35-010-CV). Hep-G2 cells were cultured in phenol red-free Minimum Essential Medium (MEM) (Corning, 17-305-CV), supplemented with 10% fetal bovine serum (FBS). SK-Hep-1 in ATCC-formulated EMEM (ATCC® 30–2003™); Huh-7 in DMEM (containing 4 mM L-glutamine and 1 g/L glucose) with […]
(§4) Kupffer Cell Media (Sekisui XenoTech, LLC, Cat. #K8700). Cells were seeded into a 96-well plate (2000 counts/100uL) for 24 h prior to treatment and then treated with various drug concentrations for 72 h. All drugs were dissolved in media with DMSO concentration maintained at 1%. The effect of compounds on cell viability was measured using the MTS assay (CellTiter 96 Aqueous One Solution and CellTiter 96 Non-Radioactive Cell Proliferation Assays, Promega, Madison, WI) as described by the manufacturer. IC50s were determined using Prism GraphPad 8. […]
In general terms: Tetrazolium dyes change colour on reduction, which living cells bring about.

Assay [2] has as its system A549 (lung adenocarcinoma). Briefly: MTS cell viability assay, 72 h. In kind it is cell-based.
Description: as §2, §3, §4

The target of the next assay is T1, HDAC8 (Homo sapiens, UniProt Q9BY41).
T1 sequence (Q9BY41 1-377): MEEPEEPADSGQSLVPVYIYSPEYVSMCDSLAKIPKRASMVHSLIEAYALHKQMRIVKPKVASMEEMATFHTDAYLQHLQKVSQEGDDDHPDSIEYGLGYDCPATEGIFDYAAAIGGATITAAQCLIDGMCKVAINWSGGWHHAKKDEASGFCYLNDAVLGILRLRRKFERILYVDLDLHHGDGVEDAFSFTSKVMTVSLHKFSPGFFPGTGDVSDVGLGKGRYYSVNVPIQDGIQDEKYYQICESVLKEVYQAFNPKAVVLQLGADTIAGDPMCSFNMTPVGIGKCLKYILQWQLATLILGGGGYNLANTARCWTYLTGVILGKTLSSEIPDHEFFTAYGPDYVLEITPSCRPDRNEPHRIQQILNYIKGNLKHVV
Briefly: HDAC isoform inhibition (BPS Bioscience).

In another assay the target is HDAC1 (Homo sapiens, UniProt Q13547). Briefly: HDAC isoform inhibition (BPS Bioscience).
Sequence of HDAC1 (Q13547 whole entry, canonical isoform): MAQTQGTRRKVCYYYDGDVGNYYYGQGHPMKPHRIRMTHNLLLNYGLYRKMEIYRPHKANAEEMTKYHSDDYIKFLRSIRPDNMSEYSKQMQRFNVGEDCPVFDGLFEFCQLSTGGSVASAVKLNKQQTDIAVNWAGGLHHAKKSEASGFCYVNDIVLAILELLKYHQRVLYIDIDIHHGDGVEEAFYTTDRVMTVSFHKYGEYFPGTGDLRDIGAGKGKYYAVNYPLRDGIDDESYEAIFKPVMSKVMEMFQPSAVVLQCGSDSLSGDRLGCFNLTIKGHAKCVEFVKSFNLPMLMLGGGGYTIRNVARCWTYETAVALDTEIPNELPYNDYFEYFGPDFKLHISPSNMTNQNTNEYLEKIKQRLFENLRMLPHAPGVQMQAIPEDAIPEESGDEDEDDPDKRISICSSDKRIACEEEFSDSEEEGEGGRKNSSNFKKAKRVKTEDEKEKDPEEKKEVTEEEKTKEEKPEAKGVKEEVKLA
In a further assay the target is HDAC2 (Homo sapiens, UniProt Q92769). The assay can be described thus: HDAC isoform inhibition (BPS Bioscience).
Sequence of HDAC2 (Q92769 whole entry, canonical isoform): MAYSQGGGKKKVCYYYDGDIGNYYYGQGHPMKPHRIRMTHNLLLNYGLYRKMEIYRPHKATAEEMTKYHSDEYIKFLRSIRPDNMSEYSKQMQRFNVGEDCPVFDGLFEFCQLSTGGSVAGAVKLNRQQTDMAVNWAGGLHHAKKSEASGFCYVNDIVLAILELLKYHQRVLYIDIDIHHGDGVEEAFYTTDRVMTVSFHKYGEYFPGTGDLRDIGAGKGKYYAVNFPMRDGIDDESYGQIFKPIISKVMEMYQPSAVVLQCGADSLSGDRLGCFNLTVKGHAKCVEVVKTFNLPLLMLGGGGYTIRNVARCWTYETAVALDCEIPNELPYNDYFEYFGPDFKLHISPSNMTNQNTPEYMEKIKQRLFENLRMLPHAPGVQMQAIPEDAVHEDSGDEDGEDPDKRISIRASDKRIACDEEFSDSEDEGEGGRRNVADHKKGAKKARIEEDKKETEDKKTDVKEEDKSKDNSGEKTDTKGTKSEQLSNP
Setting [3] is: Table S2, read-out: Anti-proliferation IC50 VERO.
The mark [4] stands for this setting: Table S2, read-out: Anti-proliferation IC50 A549.

SMILES strings stand for the structures. Where two headings read alike, the source gives them in different places.

With `O=C(CCCCCCC(=O)Nc1ccccc1)NO` [SAHA, vorinostat, reference compound], the “Caspase 3 cleavage (cleaved Caspase 3/Pro-caspase 3)” value in the assay with Hep-G2 cells is given as “showed cleavage of Caspase 3”. Further, the “Caspase 3 cleavage” value in the assay on VERO cells was “induced cleavage of Caspase 3”.
With `O=C(CCCCCCn1cc(-c2ccc3cc(O[C@H]4O[C@H](CO)[C@@H](O)[C@H](O)[C@H]4O)ccc3c2)nn1)NO` [STR-V-114], the IC50 in assay [1] (setting [3]) came to 34.1 ± 3 µM; in assay [2] (setting [4]), 77.2 ± 4.3 µM; at HDAC8 (read-out: HDAC8 IC50, Table S1), 2130 nM; at HDAC1 (read-out: HDAC1 IC50, Table S1) it was 20.3 nM; on HDAC2 (read-out: HDAC2 IC50, Table S1), 61.5 nM.
As for `O=C(CCCCCCn1cc(-c2ccc(O[C@H]3O[C@H](CO)[C@@H](O)[C@H](O)[C@H]3O)cc2)nn1)NO` [STR-V-53], the IC50 in assay [1] (Chlorocebus sabaeus, Vero, Figure 1g, read-out: Anti-proliferation effects IC50 (μM) Vero) is > 100 µM; in assay [2] (Homo sapiens, A549, Figure 1g, read-out: Anti-proliferation effects IC50 (μM) A549) it was > 100 µM; at HDAC8, 843 nM; against HDAC1 it was 24.3 nM; against HDAC2, 60.1 nM. In addition, in the assay with Hep-G2 cells, the “Caspase 3 cleavage (cleaved Caspase 3/Pro-caspase 3)” value is on record as “significant upregulation of cleave Caspase 3/Pro-caspase 3 ratio”. Further, in the assay with Hep-G2 cells, the p21WAF/CIP level entry was “upregulated significantly”. In the assay on VERO cells, the “Caspase 3 cleavage” value is “did not induce cleavage of Caspase 3”.
As to `O=C(CCCCCCn1cc(-c2ccc(O[C@@H]3O[C@H](CO)[C@@H](O)[C@H](O)[C@H]3O)cc2)nn1)NO` [STR-I-195], the IC50 in assay [1] (setting [3]) is 65.5 ± 8.3 µM; in assay [2] (setting [4]), > 100 µM; at HDAC8 (read-out: HDAC8 IC50, Table S1), 464 nM; on HDAC1 (read-out: HDAC1 IC50, Table S1), 14.6 nM; on HDAC2 (read-out: HDAC2 IC50, Table S1), 29.1 nM. Besides, the “Caspase 3 cleavage (cleaved Caspase 3/Pro-caspase 3)” value in the assay with Hep-G2 cells was “showed cleavage of Caspase 3”. Besides, the p21WAF/CIP level result in the assay with Hep-G2 cells is on record as “upregulated significantly”. Besides, the “Caspase 3 cleavage” value in the assay on VERO cells is on record as “did not induce cleavage of Caspase 3”.

Values taken from publication PMC11475281, “A Novel Liver Cancer-Selective Histone Deacetylase Inhibitor Is Effective against Hepatocellular Carcinoma and Induces Durable Responses with Immunotherapy” (ACS Pharmacology & Translational Science, 2024).
